Laboratory results taken from patent US20100234315A1, “COMPOSITIONS AND METHODS FOR TREATING PSYCHIATRIC AND […]” (priority 2009, published 2010).

Columns and labels:
[1] = tested on: spontaneously hypertensive rats (SHR); assay: Open-field locomotor activity (beam breaks, rearing) in SHR rats; format: in vivo, rat
Method: (§1) The effects of Protoveratrine B (PVB) on locomotor activity were determined using an open-field apparatus (High Density Cage Rack System; Kent Scientific Corporation). Adult spontaneously hypertensive rats (SHR) and adult Wistar Kyoto rats (WKY) were purchased from Charles River Laboratories. […] Sessions lasted 30-minutes and were separated by at least one day to diminish the likelihood of habituation to the apparatus. Three doses of PVB were investigated based upon the blood-pressure phase of the study: 0.01, 0.02 & 0.04 mg/kg.
(§2) The number of beam breaks was averaged across subjects and into 30-s bins. The upper panel represents the WKY control rats (N=8); the bottom panel represents the SHR rats (N=8). The different plots represent the baseline and different doses of PVB. Several details can be gleaned from the data. […] Second, activity levels in the SHRs appear to drop off precipitously throughout the session and eventually converge with the activity levels seen in the WKYs.
(§3) To better comprehend the effects of dose on locomotor activity, a dose-response graph was constructed for each rat strain. To construct these graphs, the number of beam breaks that occurred in the first thirty bins (first 15 min) of all rats within a strain was averaged and plotted as a function of dose. The resulting graphs, shown in FIG. 2, represent the effects of PVB on activity within the first 15 minutes post injection.
(§4) Another measure of activity level is rearing (measured by beam breaks of an infrared plane approximately 5″ above the floor of the chamber). Rearing data were analyzed in the same way as the horizontal beam breaks. The results are illustrated in FIG. 3. […] Unlike the horizontal activity, rearing activity in SHRs was decreased by the 0.01 mg/kg dose.

Wistar Kyoto rats (WKY) = assay: Open-field locomotor activity (beam breaks, rearing) in WKY rats; format: in vivo, rat
Method: as §1, §2, §3, §4

CC[C@@H](C)C(=O)O[C@H]1[C@H](O)[C@H]2[C@@H](CN3C[C@@H](C)CC[C@H]3[C@@]2(C)O)[C@@H]2C[C@]34O[C@]5(O)[C@@H](OC(=O)[C@](C)(O)[C@@H](C)O)CC[C@@]3(C)[C@@H]5[C@@H](OC(C)=O)[C@@H](OC(C)=O)[C@H]4[C@@]21O (stereo in doubt) [PVB, Protoveratrine B]
activity level (beam breaks) vs baseline ([1]; 0.01 mg/kg i.p., FIG. 1): did not affect activity
rearing activity at lowest dose ([1]; 0.01 mg/kg i.p., FIG. 3): decreased
activity level, largest dose compared with lowest dose ([1]; 0.04 mg/kg vs 0.01 mg/kg i.p., FIG. 1): greater decrease in activity
mean rearing, first 30 bins ([1]; 0.01-0.04 mg/kg i.p., FIG. 3): reduced rearing
mean number of beam breaks, first thirty bins (first 15 min) ([1]; dose-response 0.01-0.04 mg/kg i.p., FIG. 2): reduced the mean number of beam breaks
average activity level (number of beam breaks) as a function of time ([1]; i.p., 0.01-0.04 mg/kg, first half of 30-min session, FIG. 1): decreased activity levels
mean number of beam breaks, first 15 min, lowest dose ([1]; lowest dose (0.01 mg/kg) i.p., FIG. 2): no activity-decreasing effect
relative potency between strains (Wistar Kyoto rats (WKY); WKY vs SHR, from dose-response functions, FIG. 2): slightly more potent in WKY than in SHR rats
mean number of beam breaks, first 15 min, largest dose, WKY compared with SHR (Wistar Kyoto rats (WKY); WKY vs SHR, largest dose (0.04 mg/kg) i.p., FIG. 2): greater reduction in activity levels
activity level (beam breaks) vs baseline (Wistar Kyoto rats (WKY); WKY, 0.01 mg/kg i.p., FIG. 1): reduced activity from baseline
activity level, largest dose compared with lowest dose (Wistar Kyoto rats (WKY); WKY, 0.04 mg/kg vs 0.01 mg/kg i.p., FIG. 1): greater decrease in activity
mean rearing, first 30 bins (Wistar Kyoto rats (WKY); WKY, 0.01-0.04 mg/kg i.p., FIG. 3): reduced rearing
mean number of beam breaks, first thirty bins (first 15 min) (Wistar Kyoto rats (WKY); WKY, dose-response 0.01-0.04 mg/kg i.p., FIG. 2): reduced the mean number of beam breaks
average activity level (number of beam breaks) as a function of time (Wistar Kyoto rats (WKY); WKY, i.p., 0.01-0.04 mg/kg, first half of 30-min session, FIG. 1): decreased activity levels
mean number of beam breaks, first 15 min, lowest dose (Wistar Kyoto rats (WKY); WKY, lowest dose (0.01 mg/kg) i.p., FIG. 2): affected by the lowest dose
